# Source: ChEMBL document CHEMBL1201862, “PubChem BioAssay data set” (2004)
# Active and inactive are the calls of the source. Rule as the data show it, for most assays here: actives have a measured EC50 and inactives only a lower limit.
# Columns and labels:
# [1] = target: T1, Heat shock factor protein 1 (Mus musculus, UniProt P38532); test: decrease of HSF1-responsive luciferase luminescence – cell-based, NIH3T3, dose retest, confirmation (AID 2382); format: functional;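 also: NIH3T3 fibroblasts with HSF1-driven luciferase reporter stressed by proteasome inhibitor MG132; luminescence from HSF1-driven luciferase expression after 8 hours of MG132 stress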
# T1 sequence (P38532 whole entry): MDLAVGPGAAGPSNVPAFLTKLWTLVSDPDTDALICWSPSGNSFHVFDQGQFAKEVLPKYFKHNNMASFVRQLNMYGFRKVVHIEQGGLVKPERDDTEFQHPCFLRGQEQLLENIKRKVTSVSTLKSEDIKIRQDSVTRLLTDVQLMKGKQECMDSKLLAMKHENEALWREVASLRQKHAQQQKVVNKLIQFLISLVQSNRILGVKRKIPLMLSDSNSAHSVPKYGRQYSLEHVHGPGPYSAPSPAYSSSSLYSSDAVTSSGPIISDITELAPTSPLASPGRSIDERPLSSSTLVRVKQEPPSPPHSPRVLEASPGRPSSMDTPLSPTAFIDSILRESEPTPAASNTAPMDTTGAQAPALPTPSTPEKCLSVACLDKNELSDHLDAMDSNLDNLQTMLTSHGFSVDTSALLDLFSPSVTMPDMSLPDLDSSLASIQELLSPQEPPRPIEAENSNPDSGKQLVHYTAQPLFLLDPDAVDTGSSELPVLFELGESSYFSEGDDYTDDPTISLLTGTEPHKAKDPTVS
# [2] = Luminescence Cell-Based Dose Confirmation HTS to Identify Activators of 5'UTR Stem-Loop Driven Alpha-Synuclein mRNA Translation in H4 Neuroglioblastoma Cells. [Related pubchem assays: 1829 (Project Summary), 1814 (Primary HTS)]; format: functional
# [3] = Luminescence Cell-Based Dose Response HTS to Identify Activators of Luciferase Translation or Activity in H4 […] Cells. [Related pubchem assays: 1829 (Project Summary), 1814 (Primary HTS)]; format: functional
# H4 = test: Luminescence Cell-Based Dose Response HTS to Identify Activators of 5'UTR Stem-Loop Driven Prion Protein mRNA Translation in H4 Neuroglioblastoma Cells. [Related pubchem assays: 1829 (Project Summary), 1814 (Primary HTS)]; format: functional; conditions: Homo sapiens
# [4] = target: T2, Corticotropin-releasing factor receptor 2/Corticotropin-releasing factor-binding protein (Homo sapiens, UniProt P24387+Q13324); test: activators of CRF receptor 2 with binding protein – uHTS hits, confirmation (AID 602473); format: functional; conditions: read-out: EC50_Mean
# T2 sequence (Q13324 whole entry): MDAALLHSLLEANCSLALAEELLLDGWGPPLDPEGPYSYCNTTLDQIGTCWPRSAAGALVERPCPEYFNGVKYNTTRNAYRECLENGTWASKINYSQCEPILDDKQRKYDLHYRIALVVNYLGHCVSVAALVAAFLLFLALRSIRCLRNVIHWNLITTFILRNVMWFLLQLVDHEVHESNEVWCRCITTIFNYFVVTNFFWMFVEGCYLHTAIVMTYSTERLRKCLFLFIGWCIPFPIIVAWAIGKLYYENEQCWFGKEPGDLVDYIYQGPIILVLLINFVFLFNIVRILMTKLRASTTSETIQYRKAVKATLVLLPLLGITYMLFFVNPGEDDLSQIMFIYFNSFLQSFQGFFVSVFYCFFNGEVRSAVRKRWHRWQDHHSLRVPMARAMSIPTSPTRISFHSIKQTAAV
# T2 sequence (P24387 whole entry): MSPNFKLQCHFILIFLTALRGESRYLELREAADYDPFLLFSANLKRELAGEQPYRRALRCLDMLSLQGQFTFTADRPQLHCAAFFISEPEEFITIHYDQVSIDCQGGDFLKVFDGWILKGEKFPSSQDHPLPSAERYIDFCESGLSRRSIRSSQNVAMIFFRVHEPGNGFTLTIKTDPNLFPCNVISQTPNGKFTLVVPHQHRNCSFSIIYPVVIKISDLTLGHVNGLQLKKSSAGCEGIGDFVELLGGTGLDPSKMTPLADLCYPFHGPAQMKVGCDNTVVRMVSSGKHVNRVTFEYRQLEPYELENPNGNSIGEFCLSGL
# [5] = target: T2, Corticotropin-releasing factor receptor 2/Corticotropin-releasing factor-binding protein; test: Dose Response confirmation of uHTS hits for small molecule antagonists of the CRF-binding protein and CRF-R2 receptor complex.; format: functional; conditions: read-out: IC50_Mean
# Cytochrome P450 1A2 = target: T3, Cytochrome P450 1A2 (Homo sapiens, UniProt P05177);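 also: PubChem cytochrome P450 panel assay, CYP1A2 panel member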
# T3 sequence (P05177 whole entry): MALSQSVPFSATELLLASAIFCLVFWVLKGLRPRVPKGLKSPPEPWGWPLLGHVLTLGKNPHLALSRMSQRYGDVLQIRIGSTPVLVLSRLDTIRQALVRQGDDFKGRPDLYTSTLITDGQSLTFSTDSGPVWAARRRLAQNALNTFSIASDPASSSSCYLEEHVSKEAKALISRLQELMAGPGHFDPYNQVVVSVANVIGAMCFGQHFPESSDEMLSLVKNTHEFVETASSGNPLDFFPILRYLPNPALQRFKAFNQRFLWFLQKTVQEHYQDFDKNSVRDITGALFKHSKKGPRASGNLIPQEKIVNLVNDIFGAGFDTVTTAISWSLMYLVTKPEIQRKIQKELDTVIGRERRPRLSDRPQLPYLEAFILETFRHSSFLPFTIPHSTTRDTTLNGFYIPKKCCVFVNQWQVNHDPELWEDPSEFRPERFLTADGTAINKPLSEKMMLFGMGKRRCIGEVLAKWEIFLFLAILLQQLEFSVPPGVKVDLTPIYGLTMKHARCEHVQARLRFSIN
# [6] = alpha-synuclein stem-loop luciferase translation blockers – H4 neuroglioma cells, luminescence, confirmation (AID 1988); format: functional, cell-based
# [7] = Luminescence Cell-Based Dose Response HTS to Identify Inhibitors of 5'UTR Stem-Loop Driven Prion Protein mRNA Translation in H4 Neuroglioblastoma Cells. [Related pubchem assays: 1827 (Project Summary), 1813 (Primary HTS)]; format: functional
# [8] = luciferase reporter signal suppression in cells – H4 neuroglioma cells, luminescence, dose response (AID 1990); format: functional, cell-based
smiles,measurement,setting,value
CC1CCN(c2nc3ccc(C(=O)N4CCN(Cc5ccc6c(c5)OCO6)CC4)cc3s2)CC1,EC50,[1],16.5 µM (active)
O=C(NC(C(=O)c1ccccc1)n1ccc(=O)[nH]c1=O)c1ccccc1 (stereo unspecified),EC50,[2],7.39 µM (active)
same,EC50,[3],11.9 µM (active)
same,EC50,H4,16.4 µM (active)
CCOC(=O)c1c(C(F)(F)C(F)(F)C(F)(F)C(F)(F)F)n[nH]c1C,EC50,[4],> 53 µM (inactive)
same,IC50,[5],> 47.1 µM (inactive)
Cc1cc(C)cc(N(CC(=O)Nc2ccc(Br)cc2)S(=O)(=O)c2c(C)nc(O)nc2O)c1,EC50,[1],> 195 µM (not active)
CCOc1cc2c(cc1OCC)C(c1ccc(OC)cc1)N(c1ccccc1)C(=O)C2 (stereo unspecified),EC50,[1],> 195 µM (not active)
CC(=O)Nc1ccc(S(=O)(=O)N2CCC(c3nnc(-c4ccc(C)cc4)o3)CC2)cc1,EC50,[4],> 53 µM (inactive)
same,IC50,[5],> 47.1 µM (inactive)
O=C(NCc1cccs1)c1ccc(N2CCCCC2)nc1,EC50,[2],> 120 µM (not active)
same,EC50,[3],30.9 µM (active)
same,EC50,H4,31.5 µM (active)
NS(=O)(=O)c1cccc(NC(=O)CNC(=O)CC23CC4CC(CC(C4)C2)C3)c1,EC50,[1],> 195 µM (not active)
Cc1ccccc1NC(=O)c1ccc2c(c1)OCCO2,EC50,[1],> 195 µM (not active)
O=C1c2ccccc2C(=O)c2c(NC3CCCCC3)ccc(Nc3ccc(S(=O)(=O)O)cc3)c21,AC50,Cytochrome P450 1A2,1.26 µM (inconclusive)
c1ccc(C2CSc3ccccc3N2)cc1 (stereo unspecified),EC50,[2],16.9 µM (active)
same,EC50,[3],27.5 µM (active)
same,EC50,H4,22.5 µM (active)
Cc1c(Cc2ccccc2)sc(N)c1C(N)=O,EC50,[6],> 120 µM (not active)
same,EC50,[7],> 120 µM (not active)
same,EC50,[8],22.7 µM (active)
COc1cccc(OCc2cc(C(=O)N(C)Cc3nccn3C)no2)c1,EC50,[2],9.91 µM (active)
same,EC50,[3],15.6 µM (active)
same,EC50,H4,> 120 µM (not active)
Oc1ccc(Br)cn1,EC50,[6],> 120 µM (not active)
same,EC50,[7],> 120 µM (not active)
same,EC50,[8],> 120 µM (not active)
O=C(Cc1ccccc1)N/N=C/c1ccc2c(c1)OCO2,EC50,[2],1.52 µM (active)
same,EC50,[3],103 µM (active)
same,EC50,H4,> 120 µM (not active)
COc1ccc(C(=O)Cc2cnn(-c3ccccc3)c2)c(O)c1,EC50,[2],0.135 µM (active)
same,EC50,[3],1.58 µM (active)
same,EC50,H4,> 120 µM (not active)
COc1ccc(N=C(S)Nc2ccc(F)cc2)c(OC)c1,EC50,[1],> 195 µM (not active)
COc1ccc(CN=C(S)Nc2ccc(-c3ccccc3)cc2)cc1,EC50,[6],> 120 µM (not active)
same,EC50,[7],> 120 µM (not active)
same,EC50,[8],> 120 µM (not active)
Cc1cc(C)nc(SCCC(=O)Nc2ccccc2C)n1,EC50,[4],> 53 µM (inactive)
same,IC50,[5],> 47.1 µM (inactive)
Cc1cc(C)n(C(CC(=O)O)C(=O)O)n1 (stereo unspecified),EC50,[1],> 195 µM (not active)
CCN(c1ccc(NS(=O)(=O)c2cc(Cl)ccc2Cl)cc1)C(C)C,EC50,[4],> 53 µM (inactive)
same,IC50,[5],> 47.1 µM (inactive)
CCOC(=O)c1cc(C#N)c(N2CCN(c3ccccn3)CC2)nc1-c1ccccc1,EC50,[4],> 53 µM (inactive)
same,IC50,[5],> 47.1 µM (inactive)
O=C(CCSc1ccccc1)N1CCN(c2ccccc2)CC1,EC50,[2],> 120 µM (not active)
same,EC50,[3],15.5 µM (active)
same,EC50,H4,28.4 µM (active)
C=C(C)CSc1nc2cc(Cl)c[nH]c-2n1,EC50,[2],19 µM (active)
same,EC50,[3],50.8 µM (active)
same,EC50,H4,84.5 µM (active)
CN(c1ccccc1C(=O)Nc1cccc([N+](=O)[O-])c1)S(C)(=O)=O,EC50,[6],> 120 µM (not active)
same,EC50,[7],16.8 µM (active)
same,EC50,[8],> 120 µM (not active)
CC(C)c1ccc(NC(S)=NC2CCCCCC2)cc1,EC50,[2],0.166 µM (active)
same,EC50,[3],14.3 µM (active)
same,EC50,H4,22 µM (active)
Cc1ccnc(N2CCCC(C(=O)NC3CC3)C2)n1 (stereo unspecified),EC50,[4],> 53 µM (inactive)
same,IC50,[5],> 47.1 µM (inactive)
CCCNC(=O)COc1ccc2c(=O)c(Oc3ccccc3F)coc2c1,EC50,[1],> 195 µM (not active)
CCOC(=O)c1cccnc1NC(=O)c1ccncc1,EC50,[1],> 195 µM (not active)
COc1ccc(NC(=O)c2sc3nc(N4CCCC4)c4c(c3c2N)CC(C)(C)OC4)c(OC)c1,EC50,[6],14.7 µM (active)
same,EC50,[7],31.3 µM (active)
same,EC50,[8],35.2 µM (active)
O=S1(=O)CC/C(=N\Nc2ccc(F)cc2)c2ccsc21,EC50,[1],> 195 µM (not active)
C/C(=N\NS(=O)(=O)c1ccccc1)c1ccc2c(c1)OCCO2,EC50,[1],> 195 µM (not active)
Cc1ccnc(N2CCCC(C(=O)NCc3cccs3)C2)n1 (stereo unspecified),EC50,[1],> 195 µM (not active)
O=C(Nc1ccc(Br)cc1)C1Cc2ccccc2O/C1=N\O (stereo unspecified),EC50,[2],11.3 µM (active)
same,EC50,[3],7.85 µM (active)
same,EC50,H4,9.69 µM (active)
CCCOc1ccc(C(=O)NC(=S)Nc2nc3ccccc3s2)cc1,EC50,[2],20.9 µM (active)
same,EC50,[3],22.5 µM (active)
same,EC50,H4,48.3 µM (active)
CC(=O)Nc1cc(C(=O)N2CCC3(CC2)OCCO3)ccc1S(=O)(=O)c1ccc(C)cc1,EC50,[4],> 53 µM (inactive)
same,IC50,[5],> 47.1 µM (inactive)
COc1ccc(CN2C(=O)[C@@H]3Cc4c([nH]c5ccccc45)C(C)(C)N3C2=O)cc1,EC50,[6],> 120 µM (not active)
same,EC50,[7],> 120 µM (not active)
same,EC50,[8],> 120 µM (not active)
CCOc1ccc(NC(=O)C(C)NS(=O)(=O)c2ccc(NC(C)=O)cc2)cc1 (stereo unspecified),EC50,[1],> 195 µM (not active)
CCC(=O)Nc1cc(Cl)ccc1N1CCN(C(=O)CC)CC1,EC50,[4],> 53 µM (inactive)
same,IC50,[5],> 47.1 µM (inactive)
Cc1c(C(=O)NCC2CCCO2)sc2nc(-c3ccc(F)cc3)cn12 (stereo unspecified),EC50,[4],> 53 µM (inactive)
same,IC50,[5],> 47.1 µM (inactive)
COc1ccc(-c2nc3n(n2)C(c2ccccc2)C2=C(O)CCCC2=N3)cc1OC (stereo unspecified),EC50,[1],> 195 µM (not active)
Cc1cccc2cc(CN(Cc3ccccc3)C(S)=NCCCN(C)C)c(O)nc12,EC50,[1],> 195 µM (not active)
COc1ccc(CCN2C(=O)CC(Cc3ccccc3)C2=O)cc1OC (stereo unspecified),EC50,[4],> 53 µM (inactive)
same,IC50,[5],> 47.1 µM (inactive)
Cc1ccc2c(c1)cc1c(O)nncn12,EC50,[2],15.6 µM (active)
same,EC50,[3],9.57 µM (active)
same,EC50,H4,24.7 µM (active)
CCc1cc(C)cc(OCCNC(=O)c2cncc(Br)c2)c1,EC50,[1],> 195 µM (not active)
